Tested on: activation protein-1 (AP-1)
Experiment: Activity inhibition test of AP-1, Coll-CAT reporter in Cos-1 cells
Format: cell-based
Conditions: expression level in the presence of c-Jun expression set as 100%
From the text: CAT reporter (Coll-CAT) containing collagen promoter including AP-1 transcription factor binding site (TRE) was utilized to transfect Cos-1 cell line. Activity inhibition tests of activation protein-1 (AP-1) similar to the experimental example 6 were proceeded.

## COC(=O)C(Cc1ccccc1)NC(=O)[C@H](CC(=O)OC/C=C(C)/C=C/C=C(C)/C=C/C1=C(C)CCCC1(C)C)NC=O (stereo partly drawn) [retinol-(N-formyl-aspartam), (2E,4E,6E,8E)-3,7-dimethyl-9-(2,6,6-trimethyl-1-cyclohexenyl)-2,4,6,8-nonatetraenyl(3S)-4-[(1-benzyl-2-methoxy-2-oxoethyl)amino]-3-formylamino-4-oxobutanoate]
  lowered the expression of collagenase (Coll-CAT): approximately 42%

— patent publication US7030265B2, “Retinol derivatives, the method of preparations and the uses thereof” (Chebigen, Inc., priority 2001, dated 2006)
